Assay results as given in the RepoRT retention time repository.

Test: Thermo Scientific Acclaim RSLC 120 C18, 100 × 2.1 mm, 2.2 µm, 30 °C, 0.2 to 0.48 mL/min, estimated dead time 1.1 min; A: 90% water + 10% methanol + 5 mM ammonium acetate; B: methanol + 5 mM ammonium acetate; gradient (min/%B) 0.1/1 3/39 14/99.9 16/99.9
Details: stereoisomer not certain

LC retention time [min]	Compound
3.91	CC(C)NCC(O)c1ccc(NS(C)(=O)=O)cc1 (stereo unspecified)
2.5	C=CC(=O)NC(C)(C)CS(=O)(=O)O
9.29	Cc1cccc(Nc2ccccc2C(=O)O)c1C
3.16	CC(C)C(NC(=O)C(CC(=O)O)NC(=O)C(CCCCN)NC(=O)C(N)CCCN=C(N)N)C(=O)NC(Cc1ccc(O)cc1)C(=O)O (stereo unspecified)
3.04	O=c1[nH]cnc2[nH]ncc12
10.6	CCOC(=O)NCCOc1ccc(Oc2ccccc2)cc1
6.07	COCCN(C(=O)C(=O)O)c1c(C)cccc1C
6.46	CCCN(CCC)S(=O)(=O)c1ccc(C(=O)O)cc1
3.84	Nc1ncnc2c1ncn2C1OC(CO)C(O)C1O (stereo unspecified)
5.86	CCOc1nc2cccc(C(=O)O)c2n1Cc1ccc(-c2ccccc2-c2nn[nH]n2)cc1
4.42	C=C1CC23CC1(O)CCC2C12C=CC(O)C(C)(C(=O)O1)C2C3C(=O)O (stereo unspecified)
11.4	CC(C)C1CCC(C(=O)NC(Cc2ccccc2)C(=O)O)CC1 (stereo unspecified)
3.48	CC(C)(C)NCC(O)c1cc(O)cc(O)c1 (stereo unspecified)
6.76	CCN(CC)C(=O)Nc1ccc(OCC(O)CNC(C)(C)C)c(C(C)=O)c1 (stereo unspecified)
3.93	CNC(=C[N+](=O)[O-])NCCS(=O)Cc1ccc(CN(C)C)o1 (stereo unspecified)
10.9	Cc1ccc(C)c(OCCCC(C)(C)C(=O)O)c1
5.72	Cc1nnc(-c2ccccc2)c(=O)[nH]1
3.24	CNCC(O)c1cccc(O)c1 (stereo unspecified)
6.97	COCC(C)N(C(=O)CS(=O)(=O)O)c1c(C)csc1C (stereo unspecified)
1.46	NC(=O)c1ncn(C2OC(CO)C(O)C2O)n1 (stereo unspecified)
9.19	O=[N+]([O-])c1cc(C2CCCCC2)c(O)c([N+](=O)[O-])c1
8.31	CC12C=CC(=O)C=C1CCC1C2C(=O)CC2(C)C1CCC2(O)C(=O)CO (stereo unspecified)
7.15	COC(=O)c1ccc(C)cc1C1=NC(C)(C(C)C)C(=O)N1 (stereo unspecified)
2.04	Nc1ccc(O)c(C(=O)O)c1
9.91	CC12CCC(=O)C=C1CCC1C2C(O)CC2(C)C(C(=O)CO)CCC12 (stereo unspecified)

LC retention time [min]	Compound
13.7	COC1CCC(OC2CC(C3OC(C)(O)C(C)CC3C)OC2C2(C)CCC(C3(C)CCC4(CC(O)C(C)C(C(C)C5OC(O)(CC(=O)O)C(C)C(O)C5OC)O4)O3)O2)OC1C (stereo unspecified)
8.02	CCc1cccc(CC)c1N(COC)C(=O)CS(=O)(=O)O
12.4	COC(=O)NC(C(=O)NC(Cc1ccccc1)C(O)CN(Cc1ccc(-c2ccccn2)cc1)NC(=O)C(NC(=O)OC)C(C)(C)C)C(C)(C)C (stereo unspecified)
6.79	O=C(O)CCC(=O)c1ccc(-c2ccccc2)cc1
4.06	CC(C)(C)NCC(O)c1ccc(O)c(CO)c1 (stereo unspecified)
5.06	CC(=O)Nc1ccc(S(=O)(=O)Nc2nc(C)cc(C)n2)cc1
9.37	CC(C)CN(CC(O)C(Cc1ccccc1)NC(=O)OC1COC2OCCC12)S(=O)(=O)c1ccc(N)cc1 (stereo unspecified)
4.91	CC1(C)CC1C(=O)NC(=CCCCCSCC(N)C(=O)O)C(=O)O (stereo unspecified)
10.8	CC12CCC3c4ccc(O)cc4CCC3C1CCC2=O (stereo unspecified)
8.49	CC(C)(c1ccc(O)cc1)c1ccc(O)cc1
4.3	CC1(C)OCC2OC3(C(=O)O)OC(C)(C)OC3C2O1 (stereo unspecified)
3.19	CC(N)C12CC3CC(CC(C3)C1)C2 (stereo unspecified)
12.8	CCOc1cc(CC(=O)NC(CC(C)C)c2ccccc2N2CCCCC2)ccc1C(=O)O (stereo unspecified)
6.58	S=c1[nH]c2ccccc2s1
6.06	CC(NC(=O)C(N)CC(=O)O)C(=O)NC1C(C)(C)SC1(C)C (stereo unspecified)
5.42	CC(C)(C)Nc1nc(N)[nH]c(=O)n1
4.83	NC(=O)c1ccccc1O
6.64	NC(=O)N1c2ccccc2C(O)C(O)c2ccccc21 (stereo unspecified)
7.1	CNC(=O)Nc1nc2ccccc2s1
1.52	CCOS(=O)(=O)O
3.24	CC(=O)Nc1nnc(S(N)(=O)=O)s1
11.3	CCC1OC(=O)C(C)C(OC2CC(C)(OC)C(O)C(C)O2)C(C)C(OC2OC(C)CC(NC)C2O)C(C)(OC)CC(C)C(=O)C(C)C(O)C1(C)O (stereo unspecified)
4.08	CC(C)C(N)C(=O)OCC(CO)OCn1cnc2c(=O)[nH]c(N)nc21 (stereo unspecified)
6.56	CC(=O)CC(c1ccccc1)c1c(O)c2ccccc2oc1=O (stereo unspecified)
10.2	COC(=O)C(Cc1ccccc1)NC(=O)C(CC(=O)O)NCCC(C)(C)C (stereo unspecified)

LC retention time [min]	Compound
3.98	CNC(=C[N+](=O)[O-])NCCSCc1ccc(C[N+](C)(C)[O-])o1
5.91	COc1ccc(CC(C)NCC(O)c2ccc(O)c(NC=O)c2)cc1 (stereo unspecified)
4.08	CC(C)Nc1nc(N)[nH]c(=O)n1
6.37	CCOC(=O)CSc1nc(C(C)(C)C)nn1C(=O)N(C)C
7.23	Cc1ccc(NS(=O)(=O)N(C)C)cc1
13.4	COC1CC(OC2C(C)OC(OC3C(C)=CCC4CC(CC5(C=CC(C)C(C(C)C)O5)O4)OC(=O)C4C=C(C)C(O)C5OCC(=CC=CC3C)C45O)CC2OC)OC(C)C1O (stereo unspecified)
7.77	O=C(O)c1cccc(Oc2ccccc2)c1
4.81	CC[N+]1([O-])CCCC1CNC(=O)c1cc(S(=O)(=O)CC)c(N)cc1OC (stereo unspecified)
7.14	CN(C)S(=O)(=O)Nc1ccccc1
9.72	CC(C)Cc1ccc(C(C)C(=O)O)cc1 (stereo unspecified)
6.97	COCC(C)N(C(=O)C(=O)O)c1c(C)csc1C (stereo unspecified)
10.6	CNC(=O)C(=NOC)c1ccccc1COc1cc(C)ccc1C
6.02	Cc1cccc(C)c1N(Cn1cccn1)C(=O)CS(=O)(=O)O
12.5	CC(C)c1nc(CN(C)C(=O)NC(C(=O)NC(Cc2ccccc2)CC(O)C(Cc2ccccc2)NC(=O)OCc2cncs2)C(C)C)cs1 (stereo unspecified)
4.98	COC(=O)C(Cc1ccccc1)NC(=O)C(N)CC(=O)O (stereo unspecified)
4.61	CC(=O)Nc1ccc(S(=O)(=O)Nc2nccs2)cc1
5.99	CCNCC(=O)Nc1c(C)cccc1C
8.19	CC(C)Nc1nc(NC(C)C)[nH]c(=O)n1
9.24	CCCCOc1ccc(CC(=O)NO)cc1
5.11	CN(C)C(=O)Nc1ccccc1
6.54	CCNC(=O)C(C)OC(=O)Nc1ccccc1 (stereo unspecified)
8.04	CSc1nnc(C(C)(C)C)c(=O)[nH]1
6.01	CC(C)N(C(=O)CS(=O)(=O)O)c1ccccc1
8.92	CC12C=CC(=O)C=C1CCC1C2C(O)CC2(C)C1CCC2(O)C(=O)CO (stereo unspecified)
3.69	On1nnc2ccccc21

Compound	LC retention time [min]
CCOP(=O)(NC(C)C)Oc1ccc(SC)c(C)c1 (stereo unspecified)	10.4
CCCN(CCC)c1c([N+](=O)[O-])cc(S(N)(=O)=O)cc1[N+](=O)[O-]	10.2
C=C(C)C1CCC(C)=CC1c1c(O)cc(CCCCC)cc1O (stereo unspecified)	13.7
CCC1(CC)C(=O)NC(=O)NC1=O	4.8
CC(C)c1ccc(NC(=O)N(C)C)cc1	8.29
CC(C)CC(C)Nc1ccc(Nc2ccccc2)cc1 (stereo unspecified)	11.8
CCOP(=S)(NC(C)CC)Oc1cc(C)ccc1[N+](=O)[O-] (stereo unspecified)	11.2
CC1CC(C)C(=O)C(C(O)CC2CC(=O)NC(=O)C2)C1 (stereo unspecified)	6.32
CC(C)C1(C)N=C(c2ncccc2C(=O)O)NC1=O (stereo unspecified)	3.1
CCOP(=S)(OCC)SCS(=O)(=O)C(C)(C)C	8.98
CSc1nc(N=[N+]=[N-])nc(NC(C)C)n1	9.67
CCC1(CCC(C)C)C(=O)NC(=O)NC1=O	7.9
CCC(C)(CC)c1cc(NC(=O)c2c(OC)cccc2OC)on1	9.39
COC(=O)NS(=O)(=O)c1ccc(N)cc1	1.46
COC(=O)c1ccccc1S(=O)(=O)NC(=O)Nc1nc(C)nc(OC)n1	4.51
CC12CCC3C(CCC4=C(O)C(=O)CCC43C)C1CCC2=O (stereo unspecified)	6.61
Nc1ncn[nH]1	1.67
CCC(C(=O)O)C1CCC(C)C(C(C)C(O)C(C)C(=O)C(CC)C2OC3(C=CC(O)C4(CCC(C)(C5CCC(O)(CC)C(C)O5)O4)O3)C(C)CC2C)O1 (stereo unspecified)	14.7

Compound	LC retention time [min]
CSC1=NC(C)(c2ccccc2)C(=O)N1Nc1ccccc1 (stereo unspecified)	9.18
c1coc(-c2nc3ccccc3[nH]2)c1	6.8
CCC1(c2ccccc2)C(=O)NC(=O)NC1=O	6.1
CC(C)CC(CN)CC(=O)O (stereo unspecified)	4.04
COC(=O)Nc1cccc(OC(=O)Nc2cccc(C)c2)c1	8.72
CNC(=O)ON=C(C)C(C)S(C)=O (stereo unspecified)	3.36
COCc1cnc(C2=NC(C)(C(C)C)C(=O)N2)c(C(=O)O)c1 (stereo unspecified)	3.74
CCOP(=S)(OCC)Oc1cnccn1	8.03
COC(=O)NC(=S)Nc1ccccc1NC(=S)NC(=O)OC	6.88
CCCCCc1cc(O)c2c(c1)OC(C)(C)C1CCC(C(=O)O)=CC21 (stereo unspecified)	12
O=c1[nH]c(=O)[nH]c(=O)[nH]1	1.34
COc1ccc(C(O)(c2cncnc2)C2CC2)cc1 (stereo unspecified)	7.12
COP(=O)(NC(C)=O)SC (stereo unspecified)	3.09
CCOC(=O)Nc1cccc(OC(=O)Nc2ccccc2)c1	8.53
O=[N+]([O-])c1ccc(O)c([N+](=O)[O-])c1	4.5
COC(=O)Nc1nc2ccccc2[nH]1	5.8
O=C1CN=C(c2ccccc2)c2c(sc3c2CCCC3)N1	9.91
CC(C)(C)c1cc([N+](=O)[O-])cc([N+](=O)[O-])c1O	8.13
